Measured values from patent US10077261B2, “Imidazolin-5-one derivative useful as FASN inhibitors for the treatment of cancer” (Janssen Pharmaceutica NV, priority 2012, dated 2018).

Target: T1, hFASN enzyme (full length) (Homo sapiens, UniProt P49327)
T1 construct: 10 μL hFASN enzyme (full length, 300 ng, purified in house); made in house
Assay: Fatty Acid Synthase (FASN) inhibition scintillation proximity assay
Format: biochemical
Conditions: for inhibition at 10 µM: read-out: Human FASN % inhibition @ 10 μM, 10 μM test compound; for IC50: read-out: Human FASN pIC50 (converted)
Procedure, shortened: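 Scintillation proximity format: in-house full-length enzyme, 300 ng per well, pH 7.5 phosphate/DTT buffer, ³H-acetyl-CoA and malonyl-CoA. Emission counted on LEADseeker at 610 nm at least 24 h after stopping.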

T1 sequence (P49327 whole entry): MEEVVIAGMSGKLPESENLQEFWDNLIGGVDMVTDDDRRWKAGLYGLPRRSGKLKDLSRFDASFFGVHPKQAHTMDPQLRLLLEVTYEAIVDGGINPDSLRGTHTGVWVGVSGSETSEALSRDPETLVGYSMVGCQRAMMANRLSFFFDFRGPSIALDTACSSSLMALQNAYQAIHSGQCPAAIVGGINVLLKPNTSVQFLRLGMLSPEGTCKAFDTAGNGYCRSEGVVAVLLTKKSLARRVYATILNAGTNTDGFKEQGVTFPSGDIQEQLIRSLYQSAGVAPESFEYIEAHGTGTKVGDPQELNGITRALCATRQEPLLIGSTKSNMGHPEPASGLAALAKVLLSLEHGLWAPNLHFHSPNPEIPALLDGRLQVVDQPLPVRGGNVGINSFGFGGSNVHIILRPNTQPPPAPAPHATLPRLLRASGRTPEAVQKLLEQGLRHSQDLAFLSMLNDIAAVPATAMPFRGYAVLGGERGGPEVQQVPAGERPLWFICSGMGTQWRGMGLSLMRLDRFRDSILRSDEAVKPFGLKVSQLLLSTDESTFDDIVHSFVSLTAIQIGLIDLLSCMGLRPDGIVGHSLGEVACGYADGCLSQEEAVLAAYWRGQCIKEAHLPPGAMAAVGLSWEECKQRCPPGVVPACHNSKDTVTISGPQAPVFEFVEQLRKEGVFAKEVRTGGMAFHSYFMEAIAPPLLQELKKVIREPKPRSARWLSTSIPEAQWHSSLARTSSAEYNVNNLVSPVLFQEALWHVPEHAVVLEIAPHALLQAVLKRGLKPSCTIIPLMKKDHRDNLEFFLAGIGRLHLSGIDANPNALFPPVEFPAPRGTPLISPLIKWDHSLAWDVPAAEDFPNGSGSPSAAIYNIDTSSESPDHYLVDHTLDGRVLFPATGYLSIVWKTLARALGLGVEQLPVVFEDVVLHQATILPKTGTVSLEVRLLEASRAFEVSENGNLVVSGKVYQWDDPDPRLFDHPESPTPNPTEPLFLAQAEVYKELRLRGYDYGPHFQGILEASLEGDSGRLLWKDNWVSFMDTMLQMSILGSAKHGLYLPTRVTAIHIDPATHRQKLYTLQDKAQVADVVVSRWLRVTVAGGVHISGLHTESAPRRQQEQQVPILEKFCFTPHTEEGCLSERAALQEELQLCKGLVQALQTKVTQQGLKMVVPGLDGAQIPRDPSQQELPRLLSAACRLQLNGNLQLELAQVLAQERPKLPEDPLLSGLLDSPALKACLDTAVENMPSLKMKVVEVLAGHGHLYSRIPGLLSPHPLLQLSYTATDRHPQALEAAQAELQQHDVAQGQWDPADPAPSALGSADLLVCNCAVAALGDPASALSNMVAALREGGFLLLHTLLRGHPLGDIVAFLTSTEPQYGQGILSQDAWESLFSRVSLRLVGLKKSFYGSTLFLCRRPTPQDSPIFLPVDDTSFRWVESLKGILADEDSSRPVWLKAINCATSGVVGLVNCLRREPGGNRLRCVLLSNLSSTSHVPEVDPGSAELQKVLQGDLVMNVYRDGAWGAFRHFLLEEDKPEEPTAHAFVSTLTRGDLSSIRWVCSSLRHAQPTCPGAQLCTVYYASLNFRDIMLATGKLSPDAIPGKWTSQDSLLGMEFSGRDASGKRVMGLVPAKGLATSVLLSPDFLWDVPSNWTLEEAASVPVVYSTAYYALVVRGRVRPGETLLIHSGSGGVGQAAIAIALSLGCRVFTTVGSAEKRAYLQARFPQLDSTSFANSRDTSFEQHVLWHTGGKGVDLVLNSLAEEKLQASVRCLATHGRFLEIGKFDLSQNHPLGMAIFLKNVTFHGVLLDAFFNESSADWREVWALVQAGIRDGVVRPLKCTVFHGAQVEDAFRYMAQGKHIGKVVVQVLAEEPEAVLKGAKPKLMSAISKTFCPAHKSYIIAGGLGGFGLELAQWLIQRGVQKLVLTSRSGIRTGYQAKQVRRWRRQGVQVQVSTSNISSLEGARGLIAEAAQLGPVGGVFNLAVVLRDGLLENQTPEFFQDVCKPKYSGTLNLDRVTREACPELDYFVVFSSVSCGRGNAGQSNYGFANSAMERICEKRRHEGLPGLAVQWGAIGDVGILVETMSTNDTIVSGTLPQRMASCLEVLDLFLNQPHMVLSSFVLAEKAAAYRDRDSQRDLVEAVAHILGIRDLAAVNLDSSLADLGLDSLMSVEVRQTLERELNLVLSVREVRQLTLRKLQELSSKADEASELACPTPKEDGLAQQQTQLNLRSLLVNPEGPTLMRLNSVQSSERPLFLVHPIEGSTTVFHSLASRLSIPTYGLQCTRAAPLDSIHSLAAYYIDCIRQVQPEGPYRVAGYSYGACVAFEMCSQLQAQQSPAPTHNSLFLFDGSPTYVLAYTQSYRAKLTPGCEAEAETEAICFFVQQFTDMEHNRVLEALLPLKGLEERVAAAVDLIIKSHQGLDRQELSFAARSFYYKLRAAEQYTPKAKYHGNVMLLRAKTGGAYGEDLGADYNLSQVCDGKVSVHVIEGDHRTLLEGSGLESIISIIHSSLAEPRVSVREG

## CN(C)CC(=O)N1CCC2(CC1)N=C(c1ccc(-c3ccc4cnccc4c3)cc1)N(CC1CN(C(=O)C3CC3)C1)C2=O [compound 154, 3-{[1-(Cyclopropylcarbonyl)azetidin-3-yl]methyl}-8-(N,N-dimethylglycyl)-2-(4-isoquinolin-6-ylphenyl)-1,3,8-triazaspiro[4.5]dec-1-en-4-one]
  inhibition at 10 µM: 109%
  IC50: 0.269 µM

## Cn1nccc1-c1ccc(-c2ccc(C3=NC4(CC4)C(=O)N3C[C@@H]3CCN(C(=O)C4CC4)C3)cc2)cc1 [compound 407, 6-{[(3R)-1-(Cyclopropylcarbonyl)pyrrolidin-3-yl]methyl}-5-[4′-(1-methyl-1H-pyrazol-5-yl)biphenyl-4-yl]-4,6-diazaspiro[2.4]hept-4-en-7-one]
  inhibition at 10 µM: 69%
  IC50: 2.34 µM

## Cc1cc(C2=NC3(CC3)C(=O)N2CC2CN(C(=O)C3CC3)C2)ccc1-c1ccc2c(cnn2C)c1 [compound 436, 6-{[1-(Cyclopropylcarbonyl)azetidin-3-yl]methyl}-5-[3-methyl-4-(1-methyl-1H-indazol-5-yl)phenyl]-4,6-diazaspiro[2.4]hept-4-en-7-one]
  inhibition at 10 µM: 43%
  IC50: ~10 µM

## O=C(C1CC1)N1CCC(CN2C(=O)C3(CC3)N=C2c2ccc(-c3ccc(Cl)cc3)cc2)CC1 [compound 109, 5-(4′-Chlorobiphenyl-4-yl)-6-{[1-(cyclopropylcarbonyl)piperidin-4-yl]methyl}-4,6-diazaspiro[2.4]hept-4-en-7-one]
  inhibition at 10 µM: 62.1%
  IC50: 5.13 µM

## O=C(c1nccs1)N1CC(CN2C(=O)C3(CCOCC3)N=C2c2ccc(-c3ccc4cccnc4c3)cc2)C1 [compound 947, 2-(4-(quinolin-7-yl)phenyl)-3-((1-(thiazole-2-carbonyl)azetidin-3-yl)methyl)-8-oxa-1,3-diazaspiro[4.5]dec-1-ene-4-one]
  inhibition at 10 µM: -14%
  IC50: > 10 µM

## COC(=O)N1CC2(C1)N=C(c1ccc(-c3ccc4occc4c3)cc1)N(C[C@@H]1CCN(C(=O)C(C)O)C1)C2=O (stereo partly drawn) [compound 734, Methyl 6-[4-(1-benzofuran-5-yl)phenyl]-7-{[(3R)-1-(2-hydroxypropanoyl)pyrrolidin-3-yl]methyl}-8-oxo-2,5,7-triazaspiro[3.4]oct-5-ene-2-carboxylate]
  inhibition at 10 µM: 84%
  IC50: 1.7 µM

## COC(=O)N1CC2(C1)N=C(c1ccc(-c3ccc4c(cnn4C)c3)cc1)N(C[C@@H]1CCN(C(=O)N3CCCC3)C1)C2=O [compound 740, Methyl 6-[4-(1-methyl-1H-indazol-5-yl)phenyl]-8-oxo-7-{[(3S)-1-(pyrrolidin-1-ylcarbonyl)pyrrolidin-3-yl]methyl}-2,5,7-triazaspiro[3.4]oct-5-ene-2-carboxylate]
  inhibition at 10 µM: 46%
  IC50: 8.91 µM

## COC(=O)N1CC2(C1)N=C(c1ccc(-c3ccc(-c4cnn(C)c4)cc3)cc1)N(C[C@@H]1CCN(C(=O)C(F)(F)F)C1)C2=O [compound 919, (R)-methyl 6-(4′-(1-methyl-1H-pyrazol-4-yl)-[1,1′-biphenyl]-4-yl)-8-oxo-7-((1-(2,2,2-trifluoroacetyl)pyrrolidin-3-yl)methyl)-2,5,7-triazaspiro[3.4]oct-5-ene-2-carboxylate]
  inhibition at 10 µM: 12%
  IC50: > 10 µM

## O=C(C1CC1)N1CC[C@@H](CN2C(=O)C3(CC3)N=C2c2ccc(-c3cccc(OC(F)(F)F)c3)cc2)C1 [compound 146, 6-{[(3R)-1-(Cyclopropylcarbonyl)pyrrolidin-3-yl]methyl}-5-[3′-(trifluoromethoxy)biphenyl-4-yl]-4,6-diazaspiro[2.4]hept-4-en-7-one]
  inhibition at 10 µM: 38%
  IC50: > 10 µM

## CN1CCN(c2ccc(-c3ccc(C4=NC5(CCCC5)C(=O)N4C[C@@H]4CCN(C(=O)C5CC5)C4)cc3)cn2)CC1 [compound 44, 3-{[(3R)-1-(Cyclopropylcarbonyl)pyrrolidin-3-yl]methyl}-2-{4-[6-(4-methylpiperazin-1-yl)pyridin-3-yl]phenyl}-1,3-diazaspiro[4.4]non-1-en-4-one]
  inhibition at 10 µM: -0.97%
  IC50: > 10 µM

## O=C(C1CC1)N1CC(CN2C(=O)C3(CCN(C(=O)C(F)(F)F)CC3)N=C2c2ccc(-c3ccc4[nH]ncc4c3)cc2)C1 [compound 766, 3-{[1-(Cyclopropylcarbonyl)azetidin-3-yl]methyl}-2-[4-(1H-indazol-5-yl)phenyl]-8-(trifluoroacetyl)-1,3,8-triazaspiro[4.5]dec-1-en-4-one]
  inhibition at 10 µM: 67%
  IC50: ~4.47 µM

## CC(=O)N1CCC2(CC1)N=C(c1ccc(-c3ccc4[nH]ccc4c3)cc1)N(C[C@@H]1CCN(C(=O)C3CC3)C1)C2=O [compound 147, (R)-2-(4-(1H-Indol-5-yl)phenyl)-8-acetyl-3-((1-(cyclopropanecarbonyl)pyrrolidin-3-yl)methyl)-1,3,8-triazaspiro[4.5]dec-1-en-4-one]
  inhibition at 10 µM: 89.5%
  IC50: 0.0708 µM

## Cc1cc(-c2ccc(C3=NC4(CC4)C(=O)N3CC3CN(C(=O)C4CC4)C3)cc2)cc2cnn(C)c12 [compound 492, 6-{[1-(Cyclopropylcarbonyl)azetidin-3-yl]methyl}-5-[4-(1,7-dimethyl-1H-indazol-5-yl)phenyl]-4,6-dazaspiro[2.4]hept-4-en-7-one]
  inhibition at 10 µM: 77%
  IC50: 1 µM

## O=C(C1CC1)N1CC(CN2C(=O)C3(CC3)N=C2c2ccc(-c3ccc4[nH]ncc4c3)c(F)c2)C1 [compound 451, 6-{[1-(Cyclopropylcarbonyl)azetidin-3-yl]methyl}-5-[3-fluoro-4-(1H-indazol-5-yl)phenyl]-4,6-diazaspiro[2.4]hept-4-en-7-one]
  inhibition at 10 µM: 82%
  IC50: 1.26 µM

## Cc1cc2cc(-c3ccc(C4=NC5(CC5)C(=O)N4CC4CN(C(=O)C5CC5)C4)cc3)ccc2o1 [compound 178, 6-{[1-(Cyclopropylcarbonyl)azetidin-3-yl]methyl}-5-[4-(2-methyl-1-benzofuran-5-yl)phenyl]-4,6-diazaspiro[2.4]hept-4-en-7-one]
  inhibition at 10 µM: 108%
  IC50: 0.102 µM

## Cc1cc(C2=NC3(CC3)C(=O)N2CC2CN(C(=O)C3CC3)C2)ccc1-c1ccc2occc2c1 [compound 393, 5-[4-(1-Benzofuran-5-yl)-3-methylphenyl]-6-{[1-(cyclopropylcarbonyl)azetidin-3-yl]methyl}-4,6-diazaspiro[2.4]hept-4-en-7-one]
  inhibition at 10 µM: 62%
  IC50: ~2.88 µM

## O=C(C1CC1)N1CCC[C@H](CN2C(=O)C3(CC3)N=C2c2ccc(-c3ccc4[nH]ncc4c3)cc2)C1 [compound 816, (S)-5-(4-(1H-indazol-5-yl)phenyl)-6-((1-(cyclopropanecarbonyl)piperidin-3-yl)methyl)-4,6-diazaspiro[2.4]hept-4-en-7-one]
  inhibition at 10 µM: 4%
  IC50: > 10 µM

## O=C(C1CC1)N1CC[C@@H](CN2C(=O)C3(CC3)N=C2c2ccc(-c3cncc(Cl)c3)cc2)C1 [compound 802, (R)-5-(4-(5-chlorppyridin-3-yl)phenyl)-6-((1-(cyclopropanecarbonyl)pyrrolidin-3-yl)methyl)-4,6-diazaspiro[2.4]hept-4-en-7-one]
  inhibition at 10 µM: 24%
  IC50: > 10 µM

## Cc1cc2cc(-c3ccc(C4=NC5(CC5)C(=O)N4CC4CN(C(=O)C5CC5)C4)cc3F)ccc2s1 [compound 433, 6-{[1-(Cyclopropylcarbonyl)azetidin-3-yl]methyl}-5-[3-fluoro-4-(2-methyl-1-benzothiophen-5-yl)phenyl]-4,6-diazaspiro[2.4]hept-4-en-7-one]
  inhibition at 10 µM: 72%
  IC50: 1.82 µM

## Cn1cc(-c2ccc(-c3ccc(C4=NC5(CCOCC5)C(=O)N4CC4CN(C(=O)C(F)(F)F)C4)cc3)cc2)cn1 [compound 893, 2-(4′-(1-methyl-1H-pyrazol-4-yl)-[1,1′-biphenyl]-4-yl)-3-((1-(2,2,2-trifluoroacetyl)azetidin-3-yl)methyl)-8-oxa-1,3-diazaspiro[4.5]dec-1-en-4-one]
  inhibition at 10 µM: -12%
  IC50: > 10 µM

## Cc1cc(-c2ccc3c(cnn3C)c2)ccc1C1=NC2(CC2)C(=O)N1CC1CN(C(=O)C2(O)CCC2)C1 [compound 796, 6-((1-(1-hydroxycyclobutanecarbonyl)azetidin-3-yl)methyl)-5-(2-methyl-4-(1-methyl-1H-indazol-5-yl)phenyl)-4,6-diazaspiro[2.4]hept-4-en-7-one]
  inhibition at 10 µM: 19%
  IC50: > 10 µM

## CC(O)C(=O)N1CC(CN2C(=O)C3(CCOC3)N=C2c2ccc(-c3ccc4c(cnn4C)c3)cc2)C1 (centres unmarked) [compound 723, 3-{[1-(2-Hydroxypropanoyl)azetidin-3-yl]methyl}-2-[4-(1-methyl-1H-indazol-5-yl)phenyl]-7-oxa-1,3-diazaspiro[4.4]non-1-en-4-one]
  inhibition at 10 µM: 55%
  IC50: 7.94 µM

## O=C1N(C[C@@H]2CCN(S(=O)(=O)N3CCCC3)C2)C(c2ccc(-c3ccc4occc4c3)cc2)=NC12CCCC2 [compound 189, 2-[4-(1-Benzofuran-5-yl)phenyl]-3-{[(3S)-1-(pyrrolidin-1-ylsulfonyl)pyrrolidin-3-yl]methyl}-1,3-diazaspiro[4.4]non-1-en-4-one]
  inhibition at 10 µM: 16.7%
  IC50: > 10 µM

## Cn1cc(-c2ccc(-c3ccc(C4=NC5(CC5)C(=O)N4C[C@@H]4CCCN(C(=O)C5CC5)C4)cc3)cc2)cn1 [compound 823, (R)-6-((1-(cyclopropanecarbonyl)piperidin-3-yl)methyl)-5-(4′-(1-methyl-1H-pyrazol-4-yl)-[1,1′-biphenyl]-4-yl)-4,6-diazaspiro[2.4]hept-4-en-7-one]
  inhibition at 10 µM: 31%
  IC50: > 10 µM

## CC(=O)N1CCC2(CC1)N=C(c1ccc(C3=CC4CCN(C(C)=O)CC4C=C3)cc1)N(C[C@@H]1CCN(C(=O)C3CC3)C1)C2=O (stereo partly drawn) [compound 161, 8-Acetyl-2-[4-(2-acetyl-1,2,3,4,4a,8a-hexahydroisoquinolin-6-yl)phenyl]-3-{[(3R)-1-(cyclopropylcarbonyl)pyrrolidin-3-yl]methyl}-1,3,8-triazaspiro[4.5]dec-1-en-4-one]
  inhibition at 10 µM: 16%
  IC50: > 10 µM
